# Source: patent publication USRE37180E, “Photochemotherapeutical obstruction of newly-formed blood vessels” (Meiji Seika Kaisha, Ltd., priority 1995, dated 2001)
# Structures can show the parent of a compound that is named as a salt.
# Experiments:
# [1] = acute toxicity tested by intravenous injection to CD-1 mice (male); details: mouse, in vivo
# photo-toxicity tests = format: in vivo
# choroidal vessels = format: in vivo, normal pigmented rabbits
# Source text: The predetermined regions (that is, said spots) of the blood vessels to be irradiated with the laser beam had been marked preliminarily by photo-coagulation by means of an argon laser beam. Immediately after the irradiation with the laser at 664 nm, as well as one week after the irradiation and one month after the irradiation with the laser at 664 nm, the fundus of the eyes under test was examined by fluorescein angiography.
# The eye so treated was subsequently observed under light microscope at the end of 2 hours after the laser irradiation.
# The laser-irradiated parts of the eye so treated were subsequently observed under light microscope at the end of 1 hour after the laser irradiation.
# [2] = metabolic speed and level in the blood plasma; format: in vivo
# serum albumin = experiment: affinity to the serum albumin; format: binding
# [3] = liposolubility / penetration into normal tissues; format: physicochemical
# in vivo cells = experiment: transfer into the in vivo cells; details: not by diffusion
# light absorption = format: physicochemical; details: can absorb well
# [4] = system: active lesions of the neovascular tissues; experiment: accumulation in neovascular tissues; details: in vivo
# [5] = set-up: species or system normal pigmented rabbits; details: rabbit, in vivo
# [6] = system: choroidal neovascularization; experiment: occlusion of choroidal neovascularization upon irradiation with laser beam; format: in vivo; details: irradiation with a laser beam at 664 nm
# [7] = cited from earlier work
compound,measurement,setting,value
C=Cc1c(C)c2cc3nc(c(CC(=O)N[C@@H](CC(=O)O)C(=O)O)c4[nH]c(cc5nc(cc1[nH]2)C(C)=C5CC)c(C)c4C(=O)O)[C@@H](CCC(=O)O)[C@@H]3C [mono-L-aspartyl chlorin e6 tetra-sodium salt],LD50,[1],164 mg/kg
same,adverse side reactions such as erythema and edema,photo-toxicity tests,does not involve adverse side reactions such as erythema and edema
same,"obstruction of choroidal blood vessels (choriocapillaris) maintained, light microscope","choroidal vessels; 25 mg/kg i.v., laser immediately after injection, 1 hour after irradiation","the choroidal blood vessels, more particularly the choriocapillaris continued to have been obstructed"
same,"endothelial cells of the chorio-capillaris / choriocapillaris, light microscope","choroidal vessels; 25 mg/kg i.v., laser immediately after injection, 2 hours after irradiation",endothelial cells of the chorio-capillaris had been swollen and necrotized and the choriocapillaris were obstructed
same,"extent of damages incurred in the choroidal vessels, laser one hour after versus immediately after injection","choroidal vessels; 25 mg/kg i.v., observed commonly for all the doses",the extent of damages incurred in the choroidal vessels is reduced at the laser irradiation as made one hour after the intravenous injection
same,degree of obstruction of choroidal vessels compared with argon laser photo-coagulation,"choroidal vessels; 25 mg/kg, laser immediately after administration, one week after irradiation, light microscope",the choroidal vessels were obstructed to a substantially same degree in the former case and the latter case
same,obstruction in the choroidal vessels,"choroidal vessels; 25, 50 and 100 mg/kg i.v., 664 nm laser immediately after injection, fluorescein angiography one week after irradiation",the obstruction took place in the choroidal vessels at all the doses
same,"degree of the obstruction in the choroidal vessels, dose dependence","choroidal vessels; 25, 50 and 100 mg/kg i.v., laser immediately after injection, one week after irradiation",the degree of the obstruction in the choroidal vessels increased with an increased doses
same,level in the blood plasma,[2]; at the end of 10 hours from the administration,1/500
same,metabolic speed relative to photofrin,[2]; faster than photofrin,at least 10 times
same,affinity to the serum albumin,serum albumin,has a nature of exhibiting affinity to the serum albumin
same,liposolubility,[3],low liposolubility
same,penetration and diffusion into healthy normal tissues having the barrier in vivo,[3],hard to penetrate and diffuse into the healthy normal tissues having the barrier in vivo
same,mode of transfer into the in vivo cells,in vivo cells,by the phagocytosis and/or pinocytosis
same,light absorption wavelength,light absorption,664 nm
same,accumulation in the active lesions of the neovascular tissues,[4],can concentrate into and be accumulated well in the active lesions of the neovascular tissues
same,level in the blood after the administration,[5],can decrease quickly during an earlier period after the administration
same,metabolism after administration into a human or animal body,[5],can be metabolized well after its administration into a human or animal body
same,necrosis of the vascular endothelial cells and occlusion of choroidal neovascularization,[6],cause necrosis of the vascular endothelial cells and occlusion of choroidal neovascularization
same,uptake into and excretion from the human and animal body,[7],quickly uptaken into and excreted from the human and animal body
